The values that follow come from patent US20060122279A1, “Hydrophobic polyamine amides as potent lipopolysaccharide sequestrants” (priority 2004, published 2006).

The format of assay [1] is binding, E. coli 0111:B4. To be noted: E. coli 0111:B4 LPS; Tables 1-3; read-out: ED50 (half-maximal effective displacement of BC probe from LPS). Here is the method:
Polymyxin B (PMB), a peptide antibiotic known to bind and neutralize LPS^47 serves as the positive control and reference compound for every plate, enabling the quantitative assessment of repeatability and reproducibility (CV and Z′ factors) for the assay. Robotic liquid handling is performed on a Precision 2000 automated microplate pipetting system, programmed using the Precision Power software, Bio-Tek Instruments Inc., VT, USA. Stock solutions of LPS (5 mg/ml; E. coli 0111:B4; procured from Sigma) and BC (500 μM) are prepared in Tris buffer (pH 7.4, 50 mM). 1 ml each of the LPS and BC stocks are mixed and diluted in Tris buffer to a final volume of 100 ml, yielding final concentrations of 50 μg/ml of LPS and 5 μM BC. 40 μl of this BC:LPS mixture is added to each well of the plate using the Precision 2000. Fluorescence measurements are made at 25° C. on a Fluoromax-3 with Micromax Microwell 384-well plate reader, using DataMax software, Jobin Yvon Inc., N.J. The BC excitation wavelength is 580 nm, emission spectra are taken at 620 nm with both emission and excitation monochromator bandpasses set at 5 nm.

The test system of assay [2] is NFκB. As to the kind of experiment: NFκB inhibition (LPS-induced). In kind it is cell-based. To be noted: in words. The source says:
A focused library of alkyl or acyl c-substituted lysine-spermine conjugates is synthesized with even carbon-numbered chains of C14 to C20 lengths. […] Furthermore, the data showhigh activity compounds are those with chain lengths between C16 and C20. […] The exemplary compounds L-Lys-ε-(stearoyl)-N^1-spermine, D-Lys-ε-(stearoyl)-N^1-spermine, L-Lys-ε-(octadecanyl)-N^1-spermine and D-Lys-ε-(octadecanyl)—N1-spermine all show high activity for the prevention of LPS-induced NFκβ cytokine release from stimulated lymphocytes. Furthermore, the exemplary compounds L-Lys-ε-(stearoyl)-N^1-spermine, D-Lys-ε-(stearoyl)-N^1-spermine, L-Lys-ε-(octadecanyl)-N^1-spermine and D-Lys-ε-(octadecanyl)-N^1-spermine all show high activity for the prevention of LPS-induced NO release from stimulated lymphocytes.

For assay [3], the system named is CF-1 mice. As to the kind of experiment: Mouse lethality model of endotoxic shock (D-galactosamine sensitized, LPS challenge). Particulars: for time window of protection, in words: 200 ng/mouse LPS. The class given is in vivo. Here is the method:
Based on the results of the displacement assays, NO and cytokine inhibition data, 8 is elected for detailed evaluation in animal experiments. […] In all experiments reported herein, a supralethal dose of 200 ng per mouse, in a final volume of 0.2 ml saline is used. The dose-response of protection afforded by 8 is depicted in Table 4. Previous studies with labile spermine conjugates such as DOSPER^37 had shown the window of protection to be very short, a 15 minute window of protection. Compound 8, with its greater anticipated hydrolytic stability, is examined to see if it affords a more extended time-window of protection. 200 μg of 8 in a final volume of 0.2 ml injections are administered intraperitoneally at times of −6, −4, −2, 0, +1, and +2 relative to time-zero, the time at which all mice are challenged with 200 ng/mouse LPS injections. […] Testing to see if in this treatment regime, which is characterized by a slow, gradual systemic absorption from the site of injection, a longer duration of protection would be observed is carried out. Lethality is once again assessed 24 hours following the final injection.
Female, outbred, 9- to 11-week-old CF-1 mice (Charles River, Wilmington, Mass.) weighing 22-28 g are used as described elsewhere.^37 Upon arrival, the mice are allowed to acclimatize for a week prior to experimentation, housed 5 per cage in a controlled environment at the AALAC-accredited University of Kansas Animal Care Facility, and allowed access to mouse chow and water ad libitum. […] In experiments designed to test dose-response effects of the acyl-spermines in affording protection against LPS-induced lethality, mice receive graded doses of compound diluted in saline, i.p., in one flank, immediately before a supralethal (200 ng) LPS challenge, which is administered as a separate i.p. injection into the other flank. In experiments in which the temporal window of protection is to be examined, a fixed dose of 200 μg/mouse of compound is administered at various times, before, or after supralethal (200 ng/mouse) LPS challenge. Lethality is determined at 24 h post LPS challenge.

Assay [4] deals with TNF-α and IL-6 production in whole human blood. The assay can be described thus: Multiplexed cytokine assay ex vivo in human blood stimulated with LPS. The class given is cell-based. Particulars: versus polymyxin B. On the procedure: The activity of a subset of active Lys-spermine compounds is examined for their ability to inhibit TNF-α and IL-6 production in whole human blood, stimulated ex vivo with LPS.
100 μl aliquots of fresh whole blood, anticoagulated with EDTA, obtained by venipuncture from healthy human volunteers with informed consent and as per guidelines approved by the Human Subjects Experimentation Committee, is exposed to an equal volume of 50 ng/ml of E. coli 0111:B4 LPS, with graded concentrations of test compounds diluted in saline for 4 h in a 96-well microtiter plate. The effect of the compounds on modulating cytokine production examined using a FACSArray multiplexed flow-cytometric bead array (CBA) system (Becton-Dickinson-Pharmingen, San Jose, Calif.). The system uses a sandwich ELISA-on-a-bead principle,^55;56 and is comprised of 6 populations of microbeads that are spectrally unique in terms of their intrinsic fluorescence emission intensities (detected in the FL3 channel of a standard flow cytometer). […] After washing the beads, a mixture of optimally paired second antibodies conjugated to phycoerythrin is added which then forms a fluorescent ternary complex with the immobilized cytokine, the intensity (measured in the FL2 channel) of which is proportional to the cytokine concentration on the bead. […] The data are analyzed in the CBA software suite that is integral to the FACSArray system.

Several values for one entry are separate records, joined by “and”; a condition that tells them apart may be missing. Equal values may be shown once. Marks after values point to notes of the source that are not given here.

Turning to `CCCCCCCCCCCCCCCCCC(=O)NCCCCC(N)C(=O)NCCCNCCCCNCCCN` [Compound 8, D-Lys-ε-(stearoyl)-N^1-spermine], the EC50 in assay [1] came to 8.8 µM. The “prevention of LPS-induced NFκβ cytokine release from stimulated lymphocytes” value in assay [2] is reported as “high activity”. For the same compound, the “No. of live mice/total no. of mice tested” value in assay [3] (10 μg/mouse i.p., immediately before 200 ng/mouse LPS, lethality at 24 h) is reported as 0/5; in assay [3] (50 μg/mouse i.p., immediately before 200 ng/mouse LPS, lethality at 24 h) it was 1/5; in assay [3] (100 μg/mouse i.p., immediately before 200 ng/mouse LPS, lethality at 24 h), 4/5*; in assay [3] (200 μg subcutaneously at 0 h relative to LPS (200 ng/mouse)) it was 1/5; in assay [3] (200 μg subcutaneously at +2 h relative to LPS (200 ng/mouse)) it was 1/5; in assay [3] (200 μg subcutaneously at −4 h relative to LPS (200 ng/mouse)), 5/5*. For the same compound, the “No. of live mice/total no. of mice tested” value in assay [3] (200 μg subcutaneously at −8 h relative to LPS (200 ng/mouse)) is 3 of the 5 and 3/5; in assay [3] (200 μg subcutaneously at −12 h relative to LPS (200 ng/mouse)) it was 3 of the 5 and 3/5; in assay [3] (200 μg subcutaneously at −16 h relative to LPS (200 ng/mouse)) it was 3 of the 5 and 3/5; in assay [3] (200 μg subcutaneously at −24 h relative to LPS (200 ng/mouse)) it was “Two of the 5 and 2/5”; in assay [3] (200 μg/mouse i.p., immediately before 200 ng/mouse LPS, lethality at 24 h), 5/5*. The “time window of protection, in words” value is “significant protection up to 6 h prior to LPS challenge” in assay [3] (200 μg i.p.) and “significant protection even when the compound is administered 16 h ahead of LPS challenge” in assay [3] (200 μg subcutaneous). Further, the “No. of live mice/total number of mice tested” value in assay [3] (200 μg intraperitoneally at 0 h relative to LPS (200 ng/mouse)) is given as 4/5*; in assay [3] (200 μg intraperitoneally at +1 h relative to LPS (200 ng/mouse)) it was 0/5*; in assay [3] (200 μg intraperitoneally at +2 h relative to LPS (200 ng/mouse)) it was 2/5; in assay [3] (200 μg intraperitoneally at −2 h relative to LPS (200 ng/mouse)), 4/5*; in assay [3] (200 μg intraperitoneally at −4 h relative to LPS (200 ng/mouse)), 4/5*; in assay [3] (200 μg intraperitoneally at −6 h relative to LPS (200 ng/mouse)), 3/5. Besides, the “inhibitory potency on TNF-α and IL-6 production” value in assay [4] is “almost as potent as polymyxin B”.
